Measurements: patent US12162997B2, “Facile assembly of soft nanoarchitectures and co-loading of hydrophilic and hydrophobic molecules via flash nanoprecipitation” (Northwestern University, priority 2016, dated 2024)
Read-outs that look alike come from different tables or passages of the source.

Tests used:
[1] = Loading efficiency of cargo into polymersomes by fluorescence; assay type: physicochemical; conditions: FNP, single cargo, FIG. 4A
Description: The loading efficiency of the target molecule in the nanocarriers by the methods of the present invention is measured as the ratio of target molecule encapsulated within the nanocarrier to the total amount of target molecule available for loading in the initial solution. The loading efficiency is typically greater than about 40% for both proteins and hydrophobic molecules (i.e., […], about 40%, about 45%, about 50%, about 60%, about 70%, about 80%, about 85%, about 90%, or any percentages in between). In some embodiments of the invention, the loading efficiency is greater than at least 45%.
Nanocarriers were formed using the confined impingement jets (CIJ) mixer described by Han et al. PEG-bl-PPS copolymers and hydrophobic molecules to be loaded within polymersomes were dissolved in 500 μL of tetrahydrofuran (THF) and placed into a 1 mL plastic disposable syringe. […] For fluorescence measurements, samples were taken both before and after column purification to assess loading efficiency. […]
Fluorescence and absorbance measurements were taken on a SpectraMax M3 microplate reader (Molecular Devices). All readings were taken in black-walled clear bottom 96-well plates (Corning 07-200-567), at 100 μL volumes. All readings were normalized to a 100 μL 1×PBS blank control. […] NBT diformazan was detected via absorbance at 620 nm.

[2] = ZINC15 database, cited from earlier work

| SMILES | loading efficiency into polymersomes [1] | logP Values [2] | logP Values ([2]; listed as calcein) |
| --- | --- | --- | --- |
| O=C(O)CN(CC(=O)O)Cc1cc2c(cc1O)Oc1cc(O)c(CN(CC(=O)O)CC(=O)O)cc1C21OC(=O)c2ccccc21 [Calcein, calcein] | lowest loading efficiency | 1.608 | 1.6 |
| CCOC(=O)c1ccccc1-c1c2cc(Br)c(=O)c(Br)c-2oc2c(Br)c([O-])c(Br)cc12.[K+] [Ethyl Eosin, ethyl eosin] | very high loading efficiencies |  |  |
| CO[C@H]1C[C@@H]2CC[C@@H](C)[C@@](O)(O2)C(=O)C(=O)N2CCCC[C@H]2C(=O)O[C@H]([C@H](C)C[C@@H]2CC[C@@H](O)[C@H](OC)C2)CC(=O)[C@H](C)/C=C(\C)[C@@H](O)[C@@H](OC)C(=O)[C@H](C)C[C@H](C)/C=C/C=C/C=C/1C [Rapamycin, rapamycin] |  | 6.181 |  |
